The text below walks through data of patent US20230413824A1, “AGROCHEMICAL COMPOSITION COMPRISING 3-SUBSTITUTED PHENYLAMIDINE COMPOUNDS AND USE THEREOF” (PI INDUSTRIES LIMITED, priority 2020, published 2023).

Read-outs that look alike come from different tables or passages of the source.

Holding throughout (assay type): in vivo
Assay [1] has as its system Pyricularia oryzae. The assay is described as follows: whole plant or invertebrate. To be noted: for Observed Efficacy: single compound, preventive spray, rice; for pest or weed control at 1 ppm / pest or weed control at 5 ppm / pest or weed control at 20 ppm: Pyricularia oryzae, read-out: Observed Efficacy.
The test system of assay [2] is Alternaria solani. The assay is described as follows: Alternaria solani test in tomato (preventive, glasshouse). The settings on record: for pest or weed control at 1 ppm / pest or weed control at 5 ppm / pest or weed control at 20 ppm: Alternaria solani.
For assay [3], the system named is Botrytis cinerea. The experiment in a line: Botrytis cinerea test in tomato (preventive, glasshouse). The settings on record: single compound; for pest or weed control at 1 ppm: Conc. 1 ppm; for pest or weed control at 1 ppm / pest or weed control at 5 ppm / pest or weed control at 20 ppm: read-out: Observed Efficacy (%); for pest or weed control at 5 ppm: Conc. 5 ppm; for pest or weed control at 20 ppm: Conc. 20 ppm.

Assay [4] has as its system Septoria nodorum. The assay is described as follows: Parastagonospora nodorum/Septoria nodorum/Stagnospora nodorum test in wheat (preventive, glasshouse). To be noted: single compound; for pest or weed control at 1 ppm / pest or weed control at 5 ppm / pest or weed control at 20 ppm: Parastagonospora nodorum, read-out: Observed Efficacy (%). As for the experimental part: The single compounds or compound combinations were dissolved in 2% DMSO/Acetone and then mixed with water containing emulsifier to a calibrated spray volume of 50 mL. The spray solutions were poured into spray bottles for further applications.
To test the preventive activity of compounds, healthy young wheat plants, raised in the greenhouse, were sprayed with the single compound or mixture preparation at the stated application rates inside the spray cabinets using hollow cone nozzles. One day after treatment, the plants were inoculated with a suspension containing 2.8×10^6 Stagnospora nodorum inoculum. The inoculated plants were then kept in a greenhouse chamber at 22-25° C. temperature and 90-100% relative humidity for disease expression.
A visual assessment of the performance of the compounds and respective compound combinations was carried out by rating the disease severity (0-100% scale) on treated plants 3, 7 and 10 days after application. Efficacy (% control) of the compounds was calculated by comparing the disease rating in the treatment with the one of the untreated control. The compounds were also assessed for their plant compatibility by recording symptoms like necrosis, chlorosis & stunting. The results are shown for the compound of formula (I-1) to (I-5) in Table E1-E5.

Assay [5] has as its system Phakopsora pachyrhizi. The experiment in a line: Phakopsora pachyrhizi test in soybean (preventive, glasshouse). To be noted: single compound; for pest or weed control at 0.0001 ppm / pest or weed control at 0.001 ppm / pest or weed control at 0.01 ppm: Phakopsora pachyrhizi, read-out: Observed Efficacy (%).
Assay [6] has as its system Erysiphe cichoracearum. The experiment in a line: Erysiphe cichoracearum test in cucumber (preventive, glasshouse). To be noted: single compound; for Observed Efficacy (%): 0.1 ppm; for pest or weed control at 1 ppm / pest or weed control at 5 ppm / pest or weed control at 20 ppm: Golovinomyces cichoracearum, read-out: Observed Efficacy (%).
[7] abbreviates: Botrytis cinerea, preventive spray on tomato, % control vs untreated.
The mark [8] stands for this setting: Table F4, Botrytis cinerea in tomato, preventive.
[9] abbreviates: Table F5, Botrytis cinerea in tomato, preventive.

Regarding `CO/C=C(/C(=O)OC)c1ccccc1Oc1cc(Oc2ccccc2C#N)ncn1` [Azoxystrobin, azoxystrobin], the “Observed Efficacy” value amounted to 21% in assay [1] (Conc. 0.05 ppm); 26% in assay [1] (Conc. 0.1 ppm); 33% in assay [2] (single compound, Conc. 0.05 ppm, preventive spray); 49% in assay [2] (single compound, Conc. 0.1 ppm, preventive spray). In addition, the “Observed Efficacy (%)” value in assay [2] (Table B3, single compound, Conc. 0.05 ppm, preventive) is given as 33%; in assay [2] (Table B3, single compound, Conc. 0.1 ppm, preventive), 49%; in assay [2] (single compound, 0.05 ppm, preventive), 33%; in assay [2] (single compound, 0.05 ppm, preventive spray), 33%; in assay [2] (single compound, 0.1 ppm, preventive), 49%; in assay [2] (single compound, 0.1 ppm, preventive spray), 49%. Also, the “Observed Efficacy (%)” value in assay [3] (Conc. 0.1 ppm, preventive spray on tomato, % control vs untreated) came to 45%; in assay [4] (0.05 ppm), 42%; in assay [4] (0.1 ppm), 47%; in assay [5] (0.05 ppm, preventive spray on soybean), 15%; in assay [5] (0.1 ppm, preventive spray on soybean), 22%; in assay [5] (Conc. 0.05 ppm, soybean, preventive, Table D4), 15%. Besides, the “Observed Efficacy (%)” value was determined as 15% in assay [5] (Conc. 0.05 ppm, soybean, preventive, Table D5); 22% in assay [5] (Conc. 0.1 ppm, soybean, preventive, Table D4); 22% in assay [5] (Conc. 0.1 ppm, soybean, preventive, Table D5); 50% in assay [6] (cucumber, preventive); 50% in assay [6] (preventive spray on cucumber).
As to `CCN(C)C=Nc1cc(Cl)cc(Cc2cccc(C)c2)c1C` [Compound (I-1), N′-(5-chloro-2-methyl-3-(3-methylbenzyl)phenyl)-N-ethyl-N-methylformimidamide], the pest or weed control at 1 ppm in assay [1] was 17%; in assay [2] (single compound, Conc. 1 ppm, preventive spray, read-out: Observed Efficacy) it was 20%; in assay [3] (setting [7]) it was 20%; in assay [4], 17%; in assay [6] (cucumber, preventive), 13%. In addition, the pest or weed control at 5 ppm in assay [1] came to 27%; in assay [2] (single compound, Conc. 5 ppm, preventive spray, read-out: Observed Efficacy), 27%; in assay [3] (setting [7]) it was 27%; in assay [4], 20%; in assay [6] (cucumber, preventive), 33%. In addition, the pest or weed control at 20 ppm turned out to be 37% in assay [1]; 40% in assay [2] (single compound, Conc. 20 ppm, preventive spray, read-out: Observed Efficacy); 47% in assay [3] (setting [7]); 43% in assay [4]; 57% in assay [6] (cucumber, preventive). Also, in assay [5] (0.0001 ppm, preventive spray on soybean), the pest or weed control at 0.0001 ppm amounted to 40%. Besides, in assay [5] (0.001 ppm, preventive spray on soybean), the pest or weed control at 0.001 ppm was found to be 50%. Besides, in assay [5] (0.01 ppm, preventive spray on soybean), the pest or weed control at 0.01 ppm came out at 62%.
As for `CCN(C)C=Nc1cc(C)cc(Cc2cccc(F)c2)c1C` [Compound (I-4), N-ethyl-N′-(3-(3-fluorobenzyl)-2,5-dimethylphenyl)-N-methylformimidamide], the pest or weed control at 1 ppm was found to be 17% in assay [1]; 20% in assay [2] (Table B4, single compound, Conc. 1 ppm, preventive, read-out: Observed Efficacy (%)); 10% in assay [3] (setting [8]); 20% in assay [4]; 33% in assay [6] (preventive spray on cucumber). Also, the pest or weed control at 5 ppm is 23% in assay [1]; 27% in assay [2] (Table B4, single compound, Conc. 5 ppm, preventive, read-out: Observed Efficacy (%)); 17% in assay [3] (setting [8]); 23% in assay [4]; 63% in assay [6] (preventive spray on cucumber). The pest or weed control at 20 ppm is 33% in assay [1]; 37% in assay [2] (Table B4, single compound, Conc. 20 ppm, preventive, read-out: Observed Efficacy (%)); 23% in assay [3] (setting [8]); 27% in assay [4]. Further, the pest or weed control at 0.0001 ppm in assay [5] (Conc. 0.0001 ppm, soybean, preventive, Table D4) was 43%. Besides, the pest or weed control at 0.001 ppm in assay [5] (Conc. 0.001 ppm, soybean, preventive, Table D4) is 47%. The pest or weed control at 0.01 ppm in assay [5] (Conc. 0.01 ppm, soybean, preventive, Table D4) worked out at 59%.
As for `CCN(C)C=Nc1cc(F)cc(Cc2cccc(C)c2)c1C` [Compound (I-5), N-ethyl-N′-(5-fluoro-2-methyl-3-(3-methylbenzyl)phenyl)-N-methylformimidamide], the pest or weed control at 1 ppm in assay [1] is 23%; in assay [2] (single compound, 1 ppm, preventive, read-out: Observed Efficacy (%)), 13%; in assay [3] (setting [9]), 53%; in assay [4], 23%; in assay [6] (preventive spray on cucumber), 23%. Further, the pest or weed control at 5 ppm in assay [1] turned out to be 37%; in assay [2] (single compound, 5 ppm, preventive, read-out: Observed Efficacy (%)) it was 17%; in assay [3] (setting [9]), 63%; in assay [4], 33%; in assay [6] (preventive spray on cucumber), 47%. For the same compound, the pest or weed control at 20 ppm was found to be 47% in assay [1]; 27% in assay [2] (single compound, 20 ppm, preventive, read-out: Observed Efficacy (%)); 73% in assay [3] (setting [9]); 40% in assay [4]; 77% in assay [6] (preventive spray on cucumber). In assay [5] (Conc. 0.0001 ppm, soybean, preventive, Table D5), the pest or weed control at 0.0001 ppm worked out at 37%. In addition, in assay [5] (Conc. 0.001 ppm, soybean, preventive, Table D5), the pest or weed control at 0.001 ppm is 50%. Moreover, the pest or weed control at 0.01 ppm in assay [5] (Conc. 0.01 ppm, soybean, preventive, Table D5) was 61%.
